# From patent publication US6586407B1, “Injectable pharmaceutical formulations for partricin derivatives” (Quatex N.V., priority 1998, dated 2003)
# Test system: mice
# Test: Single dose i.v. toxicity (LD50) in mice
# Assay type: in vivo
# Method: In single dose testing in mice, the i.v. 50% lethal dose (LD50) of the SPA-S-843 formulation, obtained according to Example 15, is increased from 70 mg/kg to >200 mg/kg
smiles,measurement,value
"CNc1ccc(C(=O)CC(O)CC[C@H](C)C2OC(=O)C[C@H](O)CC(=O)C[C@H](O)C[C@H](O)C[C@H](O)C[C@H](O)C[C@]3(O)C[C@H](O)[C@@H](C(=O)NCCN(C)C)[C@H](C[C@@H](O[C@@H]4O[C@H](C)[C@@H](O)[C@H](NC(=O)CN(C)C)[C@@H]4O)/C=C/C=C/C=C/C=C/C=C/C=C/C=C/C2C)O3)cc1.N[C@@H](CC(=O)O)C(=O)O.N[C@@H](CC(=O)O)C(=O)O (stereo partly shown) [SPA-S-843, N-dimethylaminoacetyl-partricin A 2-dimethylamino-ethylamide diascorbate]",i.v. 50% lethal dose (LD50),70 mg/kg
